The numbers were not newly measured in publication PMC5580352 (Journal of medicinal chemistry, 2017), which cites them from elsewhere.

For this series the following is noted: 1 week of administration of 20 mg/kg.

Structures are written as SMILES.

Regarding `CCCC[S+]([O-])c1sc2nc(-c3cccs3)cc(-c3ccccc3)c2c1N` (stereo not shown) [Compound 1, 2-(butylsulfinyl)-4-phenyl-6-(thiophen-2-yl)thieno[2,3-b]pyridin-3-amine], the adverse effects entry is on record as “no adverse effects on weight, activity, blood counts or blood chemistry”.
